Assay [1] has as its system patients with PH. Put plainly: Expanded clinical study in 213 PH patients, WHO functional class III or IV, 16 weeks. The class given is in vivo, human. Here is the method:
On the basis of the results of the above study 2, the clinical study is expanded with additional 213 PH patients for at least 16 weeks. The study is conducted with patients with PH, WHO functional class III or IV. Two hundred thirteen patients are randomized to receive either 400 mg bid or 800 mg bid of 3-(3,4-dimethoxy-phenyl)-3-(1-oxo-1,3-dihydro-isoindol-2-yl)-propionamide or placebo in a 1:1:1 ratio. The primary endpoint, a 6-minute walk distance, is evaluated at 16 weeks. The treated patients walk 36.4 meters further at 16 weeks compared to a 7.8 meter reduction in walk distance in the placebo group, for a treatment effect of 44.2 meters. Clinical worsening, defined by death, premature withdrawal from study, hospitalization for worsening of PH or institution of epoprostenol, occur in 37% of placebo-treated patients, compared with 11% of the patients treated with the compound of the invention.

The subject of assay [2] is patients with PH. Put plainly: Clinical Study 2 in patients with PH, 12 weeks, placebo controlled. The class given is in vivo, human.
Another assay deals with TNF-α production. As to the kind of experiment: In vitro inhibition of cytokine (TNF-α) production following LPS-stimulation of human PBMC and human whole blood. Conditions: in vitro studies; more potent than thalidomide. The class given is cell-based. From the text:
In a specific embodiment, the pharmacological properties of 3-(3,4-dimethoxy-phenyl)-3-(1-oxo-1,3-dihydro-isoindol-2-yl)-propionamide are characterized in in vitro studies. Studies examine the effects of the compound on the production of various cytokines. Inhibition of TNF-α production following LPS-stimulation of human PBMC and human whole blood by the compound is investigated in vitro. […] The pharmacological effects of 3-(3,4-dimethoxy-phenyl)-3-(1-oxo-1,3-dihydro-isoindol-2-yl)-propionamide may derive from its action as an inhibitor of the generation of inflammatory cytokines.

Setting [3] is: 12 weeks, compared with placebo patients.
Where [4] appears, read: after 12 weeks of treatment, compared with placebo.

Regarding `COc1ccc(C(CC(N)=O)N2Cc3ccccc3C2=O)cc1OC` (centres unmarked) [3-(3,4-Dimethoxy-phenyl)-3-(1-oxo-1,3-dihydro-isoindol-2-yl)-propionamide], the “6-minute walk distance, walked further” value in the assay on patients with PH [1] (at 16 weeks, 400 mg bid or 800 mg bid) is on record as 36.4 meters. Also, the “6-minute walk distance, treatment effect versus placebo” value with patients with PH [1] (at 16 weeks, 400 mg bid or 800 mg bid, placebo 7.8 meter reduction) was found to be 44.2 meters. For the same compound, in the assay with patients with PH [1] (at least 16 weeks, placebo 37%), the “clinical worsening (death, premature withdrawal, hospitalization for worsening of PH or institution of epoprostenol), share of patients” value is listed as 11%. In the assay on patients with PH [1] (treated versus placebo patients), the functional class entry was “improved significantly more”. Moreover, in the assay with patients with PH [2] (setting [3]), the dyspnea score result is “improvements” and the functional class entry is on record as “improvements”. For the same compound, in the assay with patients with PH [2] (setting [4]), the cardiac output entry is listed as “increase”, the pulmonary arterial pressure entry is listed as “decreases” and the pulmonary vascular resistance result is recorded as “decreases”. In addition, the “6-minute walk distance, average walked farther” value in the assay with patients with PH [2] (after 12 weeks, 400 mg for four weeks followed by 800 mg for eight weeks, NYHA functional class III) came to 70 meters. Also, the “pharmacological activity profile, potency relative to thalidomide” value in the assay on TNF-α production is “five to fifty”.

These data come from patent US20050239867A1, “Methods of using and compositions comprising PDE4 modulators for the treatment and management of pulmonary hypertension” (priority 2004, published 2005).
